Assays:
[1] = system: Tankyrase (Axin2 level in DLD1 cells); experiment: Cellular inhibition of Tankyrase, Axin2 Luminex assay in DLD1 cells; assay type: cell-based; conditions: Homo sapiens, DLD-1, 24 hours, Axin2 level increase, read-out: IC50 Cell assay
Description: Measurement of Cellular Inhibition of Tankyrase
Since Tankyrases have been described to modulate cellular level of Axin2 (Huang et al., 2009; Nature) the increase of Axin2 level is used as read-out for determination of cellular inhibition of Tankyrases in a Luminex based assay.
Cells of the colon carcinoma cell line DLD1 are plated in 96 well plates with 1.5×10^4 cells per well. Next day, cells are treated with a serial dilution of test compound in seven steps as triplicates with a final DMSO concentration of 0.3%. After 24 hours, cells are lysed in lysis buffer (20 mM Tris/HCl pH 8.0, 150 mM NaCl, 1% NP40, 10% Glycerol) and lysates are cleared by centrifugation through a 96 well filter plate (0.65 μm). Axin2 protein is isolated from cell lysates by incubation with a monoclonal anti-Axin2 antibody (R&D Systems #MAB6078) that is bound to fluorescent carboxybeads. Then, bound Axin2 is specifically detected with a polyclonal anti-Axin2 antibody (Cell Signaling #2151) and an appropriate PE-fluorescent secondary antibody. The amount of isolated Axin2 protein is determined in a Luminex^200 machine (Luminex Corporation) according to the manufacturer's instruction by counting 100 events per well. Inhibition of Tankyrase by test compounds results in higher levels of Axin2 which directly correlates with an increase of detectable fluorescence. As controls cells are treated with solvent alone (neutral control) and with a Tankyrase reference inhibitor IWR-2 (3E-06 M) which refers as control for maximum increase of Axin2. For analysis, the obtained data are normalized against the untreated solvent control and fitted for determination of the EC50 values using the Assay Explorer software (Accelrys).

[2] = target: T1, GST-tagged Tankyrase-2 (873-1166 aa) (Homo sapiens, UniProt Q9H2K2); experiment: Tankyrase 2 autoparsylation HTRF enzyme assay; assay type: biochemical; conditions: HTRF autoparsylation, 90 min at 30° C; read-out: IC50 TNKS2 enzyme assay
T1 construct: GST-tagged Tankyrase-2 (873-1166 aa)
Description: Biochemical Activity Testing of Tankyrase 1 and 2: Autoparsylation Assay
The autoparsylation assay is run in two steps: the enzymatic reaction in which GST-tagged Tankyrase-1, resp Tankyrase-2 transferred biotinylated ADP-ribose to itself from biotinylated NAD as co-substrate and the detection reaction where a time resolved FRET between cryptate labelled anti-GST bound to the GST tag of the enzyme and Xlent® labelled-streptavidin bound the biotin-parsylation residue is analysed. The autoparsylation activity was detectable directly via the increase in HTRF signal.
The autoparsylation assay is performed as 384-well HTRF® (Cisbio, Codolet, France) assay format in Greiner low volume nb 384-well microtiter plates and is used for high throughput screen. 250 nM GST-tagged Tankyrase-1 (1023-1327 aa), respectively about 250 nM GST-tagged Tankyrase-2 (873-1166 aa) and 5 μM bio-NAD (Biolog, Life science Inst., Bremen, Germany) as co-substrate are incubated in a total volume of 5 μl (50 mM HEPES, 4 mM Mg-chloride, 0.05% Pluronic F-68, 1.4 mM DTT, 0.5% DMSO, pH 7.7) in the absence or presence of the test compound (10 dilution concentrations) for 90 min at 30° C. The reaction is stopped by the addition of 1 μl 50 mM EDTA solution. 2 μl of the detection solution (1.6 μM SA-Xlent® (Cisbio, Codolet, France), 7.4 nM Anti-GST-K® (Eu-labelled anti-GST, Cisbio, Codolet, France) in 50 mM HEPES, 800 mM KF, 0.1° A. BSA, 20 mM EDTA, 0.1% CHAPS, pH 7.0) are added. After 1 h incubation at room temperature the HTRF is measured with an Envision multimode reader (Perkin Elmer LAS Germany GmbH) at excitation wavelength 340 nm (laser mode) and emission wavelengths 615 nm and 665 nm. The ratio of the emission signals is determined. The full value used is the inhibitor-free reaction. The pharmacological zero value used is XAV-939 (Tocris) in a final concentration of 5 μM. The inhibitory values (IC50) are determined using either the program Symyx Assay Explorer® or Condosseo® from GeneData.

T1 sequence (Q9H2K2 873-1166): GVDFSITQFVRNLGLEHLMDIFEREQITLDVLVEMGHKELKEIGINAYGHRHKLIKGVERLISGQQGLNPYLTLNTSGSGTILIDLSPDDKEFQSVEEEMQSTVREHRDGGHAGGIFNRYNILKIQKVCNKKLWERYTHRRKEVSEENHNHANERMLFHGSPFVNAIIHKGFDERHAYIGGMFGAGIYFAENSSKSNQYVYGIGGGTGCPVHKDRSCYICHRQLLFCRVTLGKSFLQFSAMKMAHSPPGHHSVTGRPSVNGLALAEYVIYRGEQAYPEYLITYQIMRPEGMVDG

Row | Structure (SMILES) | IC50 [1] | IC50 [2]
1 | O=C(Cc1ccccc1)Nc1nncc2ccccc12 [Compound A1, 2-phenyl-N-phthalazin-1-yl-acetamide] | 3 to 50 µM | 0.3 to 3 µM
2 | COc1cccc(CC(=O)Nc2nncc3ccccc23)c1 [Compound A2, 2-(3-methoxyphenyl)-N-phthalazin-1-yl-acetamide] | 3 to 50 µM | 0.3 to 3 µM
3 | COc1ccc(CC(=O)Nc2nncc3ccccc23)cc1 [Compound A3, 2-(4-methoxyphenyl)-N-phthalazin-1-yl-acetamide] | 3 to 50 µM | 0.3 to 3 µM
4 | CCOc1ccc(CC(=O)Nc2nncc3ccccc23)cc1 [Compound A4, 2-(4-ethoxyphenyl)-N-phthalazin-1-yl-acetamide] | 3 to 50 µM | 0.3 to 3 µM
5 | O=C(CCC1CCCC1)Nc1nncc2ccccc12 [Compound A15, 3-cyclopentyl-N-phthalazin-1-yl-propionamide] | 3 to 50 µM | < 0.3 µM
6 | O=C(CCc1ccccc1Cl)Nc1nncc2ccccc12 [Compound A16, 3-(2-chloro-phenyl)-N-phthalazin-1-yl-propionamide] | 3 to 50 µM | < 0.3 µM
7 | Cc1cccc2cnnc(NC(=O)Cc3ccccc3)c12 [Compound A18, N-(8-methyl-phthalazin-1-yl)-2-phenyl-acetamide] | 3 to 50 µM | 0.3 to 3 µM
8 | COc1ccc(CC(=O)Nc2nncc3cccc(C)c23)cc1 [Compound A20, 2-(4-methoxy-phenyl)-N-(8-methyl-phthalazin-1-yl)-acetamide] | 3 to 50 µM | 0.3 to 3 µM
